# Test results reported in patent US8623857B2, “N-phenyl imidazole carboxamide inhibitors of 3-phosphoinositide-dependent protein kinase-1” (Merck Sharp & Dohme Corp., priority 2010, dated 2014).
# Molecular target: T1, recombinant human PDK1 (Homo sapiens, UniProt O15530)
# T1 construct: containing amino acids 51-556 of the human PDK1 enzyme; made in house; host or cells: Sf9 insect cells
# T1 sequence (O15530 51-556): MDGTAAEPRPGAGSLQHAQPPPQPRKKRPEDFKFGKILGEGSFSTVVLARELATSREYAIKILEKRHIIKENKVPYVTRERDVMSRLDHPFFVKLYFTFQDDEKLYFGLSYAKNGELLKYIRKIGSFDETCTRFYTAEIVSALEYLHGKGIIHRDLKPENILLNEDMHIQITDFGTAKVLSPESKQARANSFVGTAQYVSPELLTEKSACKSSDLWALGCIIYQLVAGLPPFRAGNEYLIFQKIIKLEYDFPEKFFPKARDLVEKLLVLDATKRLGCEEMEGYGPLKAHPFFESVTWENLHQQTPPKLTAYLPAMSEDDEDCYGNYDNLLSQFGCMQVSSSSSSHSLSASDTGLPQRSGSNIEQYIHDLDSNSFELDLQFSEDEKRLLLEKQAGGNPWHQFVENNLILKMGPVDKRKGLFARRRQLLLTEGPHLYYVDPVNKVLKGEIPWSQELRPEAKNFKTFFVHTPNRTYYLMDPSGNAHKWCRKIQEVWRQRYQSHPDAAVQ
# Experiment: PDK1 IMAP fluorescence polarization assay (inhibition of peptide substrate phosphorylation)
# Assay type: biochemical
# Details: Table 6; 10 nM PDK1 enzyme, 100 nM peptide substrate, 100 nM PIFtide, 2.5 uM ATP, 1.5 hours
row,Structure (SMILES),IC50
1,"CN(C)CCOc1ccccc1NC(=O)c1nc(-c2c[nH]c3ccccc23)c[nH]1 [Compound 17, N-[2-[2-(dimethylamino)ethoxy]phenyl]-4-(1H-indol-3-yl)-1H-imidazole-2-carboxamide]",251 to 1000 nM
2,"Cc1cc(-c2c[nH]c(C(=O)Nc3cccc(F)c3N3CCC(CN)CC3)n2)ccn1 [Compound 18, N-[2-[4-(aminomethyl)-1-piperidinyl]-3-fluorophenyl]-4-(2-methyl-4-pyridinyl)-1H-imidazole-2-carboxamide]",1 to 50 nM
3,"N[C@@H]1CCCN(c2c(F)cccc2NC(=O)c2nc(-c3ccnc(C(F)(F)F)c3)c[nH]2)C1 [Compound 19, N-[2-(3(R)-amino-1-piperidinyl)-3-fluorophenyl]-4-[2-(trifluoromethyl)-4-pyridinyl]-1H-imidazole-2-carboxamide]",51 to 250 nM
4,"Nc1cc(-c2c[nH]c(C(=O)Nc3cccc(F)c3N3CCC[C@@H](N)C3)n2)ccn1 [Compound 20, N-[2-(−3(R)-amino-1-piperidinyl)-3-fluorophenyl]-4-(2-amino-4-pyridinyl)-1H-imidazole-2-carboxamide]",1 to 50 nM
5,"COc1cc(-c2c[nH]c(C(=O)Nc3cccc(F)c3N3CCC[C@@H](N)C3)n2)ccn1 [Compound 21, N-[2-(3(R)-amino-1-piperidinyl)-3-fluorophenyl]-4-(2-methoxy-4-pyridinyl)-1H-imidazole-2-carboxamide]",51 to 250 nM
6,"N[C@@H]1CCCN(c2c(F)cccc2NC(=O)c2nc(C3=CCOCC3)c[nH]2)C1 [Compound 22, N-[2-(3(R)-amino-1-piperidinyl)-3-fluorophenyl]-4-(3,6-dihydro-2h-pyran-4-yl)-1H-imidazole-2-carboxamide]",251 to 1000 nM
7,"N[C@@H]1CCCN(c2c(F)cccc2NC(=O)c2nc(-c3ccnc(C4CC4)c3)c[nH]2)C1 [Compound 23, N-[2-(3(R)-amino-1-piperidinyl)-3-fluorophenyl]-4-(2-cyclopropyl-4-pyridinyl)-1H-imidazole-2-carboxamide]",51 to 250 nM
8,"Cc1cc(-c2c[nH]c(C(=O)Nc3cccc(F)c3N3CCC[C@@H](N)C3)n2)cc(N)n1 [Compound 24, 4-(2-amino-6-methyl-4-pyridinyl)-N-[2-(3(R)-amino-1-piperidinyl)-3-fluorophenyl]-1H-imidazole-2-carboxamide]",1 to 50 nM
9,"N[C@@H]1CCCN(c2c(F)cccc2NC(=O)c2nc(-c3ccnc(O)c3)c[nH]2)C1 [Compound 25, N-[2-(3(R)-amino-1-piperidinyl)-3-fluorophenyl]-4-(2-hydroxy-4-pyridinyl)-1H-imidazole-2-carboxamide]",1000 to 5000 nM
10,"N[C@@H]1CCCN(c2c(F)cccc2NC(=O)c2nc(-c3ccnc(CO)c3)c[nH]2)C1 [Compound 26, N-[2-(3(R)-amino-1-piperidinyl)-3-fluorophenyl]-4-[2-(hydroxymethyl)-4-pyridinyl]-1H-imidazole-2-carboxamide]",1 to 50 nM
11,"NCC1CCN(c2c(F)cccc2NC(=O)c2nc(-c3ccnc(N)c3)c[nH]2)CC1 [Compound 27, N-[2-[4-(aminomethyl)-1-piperidinyl]-3-fluorophenyl]-4-(2-amino-4-pyridinyl)-1H-imidazole-2-carboxamide]",1 to 50 nM

# Second part, the compound after the results:
row,IC50,Structure (SMILES)
1,51 to 250 nM,"NCC1CCN(c2c(NC(=O)c3nc(-c4ccnc(N)c4)c[nH]3)ccc(F)c2F)CC1 [Compound 28, N-[2-[4-(aminomethyl)-1-piperidinyl]-3,4-difluorophenyl]-4-(2-amino-4-pyridinyl)-1H-imidazole-2-carboxamide]"
2,1 to 50 nM,"Cc1cc(-c2c[nH]c(C(=O)Nc3cccc(F)c3N3CCC[C@@H](N)C3)n2)nc(N)n1 [Compound 29, 4-(2-amino-6-methyl-4-pyrimidinyl)-N-[2-(3(R)-amino-1-piperidinyl)-3-fluorophenyl]-1H-imidazole-2-carboxamide]"
3,1 to 50 nM,"CCc1cc(-c2c[nH]c(C(=O)Nc3cccc(F)c3N3CCC(CN)CC3)n2)ccn1 [Compound 30, N-[2-[4-(aminomethyl)-1-piperidinyl]-3-fluorophenyl]-4-(2-ethyl-4-pyridinyl)-1H-imidazole-2-carboxamide]"
4,51 to 250 nM,"NCC1CCN(c2c(F)cccc2NC(=O)c2nc(-c3cccc(S(N)(=O)=O)c3)c[nH]2)CC1 [Compound 31, N-[2-[4-(aminomethyl)-1-piperidinyl]-3-fluorophenyl]-4-[3-(aminosulfonyl)phenyl]-1H-imidazole-2-carboxamide]"
5,1 to 50 nM,"CNc1cc(-c2c[nH]c(C(=O)Nc3cccc(F)c3N3CCC(CN)CC3)n2)ccn1 [Compound 32, N-[2-[4-(aminomethyl)-1-piperidinyl]-3-fluorophenyl]-4-[2-(methylamino)-4-pyridinyl]-1H-imidazole-2-carboxamide]"
6,51 to 250 nM,"CC(=O)Nc1cc(-c2c[nH]c(C(=O)Nc3cccc(F)c3N3CCC(CN)CC3)n2)ccn1 [Compound 33, 4-[2-(acetylamino)-4-pyridinyl]-N-[2-[4-(aminomethyl)-1-piperidinyl]-3-fluorophenyl]-1H-imidazole-2-carboxamide]"
7,51 to 250 nM,"NCC1CCN(c2c(F)cccc2NC(=O)c2nc(-c3cccc(Cl)c3)c[nH]2)CC1 [Compound 34, N-[2-[4-(aminomethyl)-1-piperidinyl]-3-fluorophenyl]-4-(3-chlorophenyl)-1H-imidazole-2-carboxamide]"
8,1 to 50 nM,"NCC1CCN(c2c(F)cccc2NC(=O)c2nc(-c3ccnc(NCc4ccccc4)c3)c[nH]2)CC1 [Compound 35, N-[2-[4-(aminomethyl)-1-piperidinyl]-3-fluorophenyl]-4-[2-[(phenylmethyl)amino]-4-pyridinyl]-1H-imidazole-2-carboxamide]"
9,251 to 1000 nM,"CN(C)c1cc(-c2c[nH]c(C(=O)Nc3cccc(F)c3N3CCC(CN)CC3)n2)ccn1 [Compound 36, N-[2-[4-(aminomethyl)-1-piperidinyl]-3-fluorophenyl]-4-[2-(dimethylamino)-4-pyridinyl]-1H-imidazole-2-carboxamide]"
10,1000 to 5000 nM,"Cc1ccc(C)c(-c2c[nH]c(C(=O)Nc3cccc(F)c3N3CCC(CN)CC3)n2)c1 [Compound 37, N-[2-[4-(aminomethyl)-1-piperidinyl]-3-fluorophenyl]-4-(2,5-dimethylphenyl)-1H-imidazole-2-carboxamide]"
11,251 to 1000 nM,"N[C@@H]1CCCN(c2c(F)cccc2NC(=O)c2nc(-c3ccc(F)cc3F)c[nH]2)C1 [Compound 38, N-[2-(3(R)-amino-1-piperidinyl)-3-fluorophenyl]-4-(2,4-difluorophenyl)-1H-imidazole-2-carboxamide]"
12,251 to 1000 nM,"N[C@@H]1CCCN(c2c(F)cccc2NC(=O)c2nc(-c3ccnc(-n4cccn4)c3)c[nH]2)C1 [Compound 39, N-[2-(3(R)-amino-1-piperidinyl)-3-fluorophenyl]-4-[2-(1H-pyrazol-1-yl)-4-pyridinyl]-1H-imidazole-2-carboxamide]"
13,251 to 1000 nM,"CN(C)CC1CCN(c2ccccc2NC(=O)c2nc(-c3ccnc(N)c3)c[nH]2)CC1 [Compound 40, 4-(2-amino-4-pyridinyl)-N-[2-[4-[(dimethylamino)methyl]-1-piperidinyl]phenyl]-1H-imidazole-2-carboxamide]"
14,51 to 250 nM,"NCC1CCN(c2c(F)cccc2NC(=O)c2nc(-c3cccc(CCO)c3)c[nH]2)CC1 [Compound 41, N-[2-[4-(aminomethyl)-1-piperidinyl]-3-fluorophenyl]-4-[3-(2-hydroxyethyl)phenyl]-1H-imidazole-2-carboxamide]"
